Results published in patent US6844358B2, “Phenyl oxo-acetic acids useful in the treatment of insulin resistance and hyperglycemia” (Wyeth, priority 1998, dated 2005).
Like-named read-outs stand apart in the source and are kept apart here.

Key:
[1] = target: T1, Human recombinant PTP1B (hPTP1B) (Homo sapiens, UniProt P18031); format: biochemical; conditions: hPTP1B
T1 construct: made in house
T1 sequence (P18031 1-435): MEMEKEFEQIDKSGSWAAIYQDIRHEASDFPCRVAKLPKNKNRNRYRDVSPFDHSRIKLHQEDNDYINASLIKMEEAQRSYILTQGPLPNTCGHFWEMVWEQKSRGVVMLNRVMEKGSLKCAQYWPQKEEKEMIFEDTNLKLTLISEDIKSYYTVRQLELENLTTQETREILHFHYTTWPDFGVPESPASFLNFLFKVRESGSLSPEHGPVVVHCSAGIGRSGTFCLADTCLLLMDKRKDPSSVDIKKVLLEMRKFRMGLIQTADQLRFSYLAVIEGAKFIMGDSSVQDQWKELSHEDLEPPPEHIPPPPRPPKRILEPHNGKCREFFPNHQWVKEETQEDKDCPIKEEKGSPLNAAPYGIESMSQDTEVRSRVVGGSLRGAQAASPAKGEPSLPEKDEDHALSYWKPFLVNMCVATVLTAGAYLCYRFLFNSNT

[2] = target: rat hepatic microsomal PTPases; conditions: rat hepatic microsomal PTPase; for IC50: dodecaphosphopeptide substrate 50 uM; for % Change from Control at 50 μM: 50 μM compound
[3] = target: T2, recombinant rat protein tyrosine phosphatase, PTP1B (rPTP1B) (Rattus norvegicus, UniProt P20417); format: biochemical; conditions: rPTP1B; for IC50: read-out: IC50
T2 sequence (P20417 1-432): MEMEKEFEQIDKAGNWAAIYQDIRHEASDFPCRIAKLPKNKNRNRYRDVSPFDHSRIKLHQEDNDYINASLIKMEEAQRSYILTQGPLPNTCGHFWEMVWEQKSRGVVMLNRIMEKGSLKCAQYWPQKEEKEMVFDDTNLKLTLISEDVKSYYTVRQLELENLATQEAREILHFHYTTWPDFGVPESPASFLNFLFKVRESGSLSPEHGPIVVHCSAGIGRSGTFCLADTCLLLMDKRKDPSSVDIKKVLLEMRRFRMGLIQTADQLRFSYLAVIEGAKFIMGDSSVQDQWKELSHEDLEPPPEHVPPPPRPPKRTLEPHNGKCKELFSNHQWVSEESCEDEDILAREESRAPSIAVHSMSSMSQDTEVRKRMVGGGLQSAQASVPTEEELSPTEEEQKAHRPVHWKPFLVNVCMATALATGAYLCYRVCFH

diabetic (ob/ob) mice = assay: Blood glucose lowering activity in diabetic (ob/ob) mice; format: in vivo; conditions: Mus musculus, po
Procedure: The procedures used and results obtained are briefly described below. […]
In each test procedure, mice [Male or female ob/ob (C57 B1/6J) and their lean litermates (ob/+ or +/+, Jackson Laboratories) ages 2 to 5 months (10 to 65 g)] of a similar age were randomized according to body weight into 4 groups of 10 mice. The mice were housed 5 per cage and are maintained on normal rodent chow with water ad libitum. Mice received test compound daily by gavage (suspended in 0.5 ml of 0.5% methyl cellulose); dissolved in the drinking water; or admixed in the diet. The dose of compounds given ranges from 2.5 to 200 mg/kg body weight/day. The dose is calculated based on the fed weekly body weight and is expressed as active moiety. […] Control mice received vehicle only.
On the morning of Day 4, 7 or 14 two drops of blood (approximetly 50 ul) were collected into sodium fluoride containing tubes either from the tail vein or after decapitation. For those studies in which the compound was administered daily by gavage the blood samples were collected two hours after compound administration. […]
Analysis of variance followed by Dunett's Comparison Test (one-tailed) are used to estimate the significant difference between the plasma glucose values from the control group and the individual compound treated groups (CMS SAS Release 5.18).

[4] = tested on: Human recombinant PTP1B (hPTP1B); format: biochemical
[5] = 96 h, plasma glucose on Day 4, 7 or 14, suffix a = no significant activity at this dose, read-out: % Change Glucose from Vehicle
[6] = suffix a = no significant activity at this dose, read-out: % Change Insulin from Vehicle

Compound | IC50 [1] | melting point | IC50 [2] | % change from control at 10 μM ([3]; 10 μM compound) | IC50 [3] | % Change from Control at 50 μM [2] | % change from control at 10 μM ([4]; reference standards, enzyme form (rPTP1B/hPTP1B) not given) | change in vivo at 100 mg/kg (diabetic (ob/ob) mice; [5]) | change in vivo at 100 mg/kg (diabetic (ob/ob) mice; [6]) | % change from control at 10 μM [4]
CCCCc1oc2ccccc2c1Cc1cc(Br)c(OCC(=O)O)c(Br)c1 [Example 7] | 1400 nM | 118 to 119 °C | 22700 nM | −99 (rPTP1B) % | – | – | – | -29.4% | -13.1% | –
O=C(c1cc(Br)c(O)c(Br)c1)c1c(Cc2ccccc2)sc2ccccc12 [Example 11, (2-Benzyl-benzo[b]thiophen-3-yl)-(3,5-dibromo-4-hydroxy-phenyl)-methanone] | 1940 nM | 155.5 to 156.5 °C | 33900 nM | – | 3970 nM | – | – | -30.3% | -53.2% | –
[Na+].[Na+].[Na+].[O]=[V]([O-])([O-])[O-] [Sodium orthovanadate, reference compound] | – | – | – | – | – | – | – | – | – | 244.8%

The next lines start with results.

IC50 [1] | melting point | IC50 [2] | % change from control at 10 μM ([3]; 10 μM compound) | IC50 [3] | % Change from Control at 50 μM [2] | % change from control at 10 μM ([4]; reference standards, enzyme form (rPTP1B/hPTP1B) not given) | Compound | change in vivo at 100 mg/kg (diabetic (ob/ob) mice; [5]) | change in vivo at 100 mg/kg (diabetic (ob/ob) mice; [6]) | % change from control at 10 μM [4]
2600 nM | – | 15300 nM | – | 190 nM | – | – | CCCCc1oc2ccccc2c1C(=O)c1cc(I)c(O)c(I)c1 [Example 16, (2-Butyl-benzofuran-3-yl)-(4-hydroxy-3,5-diiodo-phenyl)-methanone] | -51.8% | -73.7% | –
1150 nM | 56 to 58 °C | – | – | – | −77% | – | CCCCc1oc2ccccc2c1C(=O)c1cc(Br)c(O[C@H](Cc2ccccc2)C(=O)O)c(Br)c1 [Example 22, (R)-2-[2,6-dibromo-4-(2-butyl-benzofuran-3-carbonyl)-phenoxy]-3-phenyl-propionic acid] | – | – | –
870 nM | 225 to 226 °C | – | – | – | −85% | – | CCCCc1oc2ccccc2c1Cc1cc(Br)c(O[C@H](Cc2ccccc2)C(=O)O)c(Br)c1 [Example 23, (R)-2-[2,6-dibromo-4-(2-butyl-benzofuran-3-ylmethyl)-phenoxy]-3-phenyl-propionic acid] | – | – | –
– | – | – | – | – | – | 8.7% | Ammonium molybdate tetrahydrate [reference compound] | – | – | –
